Measured values reported in PubChem BioAssay (NCI).
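Five compound concentrations were applied to cells in 96-well plates for 48 hours; endpoints were derived by simple linear interpolation of the resulting dose-response curve. GI50 marks 50% less growth. TGI marks complete inhibition of growth.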

Assays:
Test in all cases: NCI anticancer screen, dose series, 48 h
786-0 renal = test system: 786-0 renal
A498 renal = test system: A498 renal
A549 NSCLC = test system: A549 NSCLC
ACHN renal = test system: ACHN renal
BT-549 breast = test system: BT-549 breast
CAKI-1 renal = test system: CAKI-1 renal
CCRF-CEM leukemia = test system: CCRF-CEM leukemia
COLO 205 colon = test system: COLO 205 colon
DU-145 prostate = test system: DU-145 prostate
EKVX NSCLC = test system: EKVX NSCLC
HCC-2998 colon = test system: HCC-2998 colon
HCT-116 colon = test system: HCT-116 colon
HCT-15 colon = test system: HCT-15 colon
HL-60(TB) leukemia = test system: HL-60(TB) leukemia
HOP-62 NSCLC = test system: HOP-62 NSCLC
HOP-92 NSCLC = test system: HOP-92 NSCLC
HS 578T breast = test system: HS 578T breast
HT29 colon = test system: HT29 colon
IGROV1 ovarian = test system: IGROV1 ovarian
K-562 leukemia = test system: K-562 leukemia
KM12 colon = test system: KM12 colon
LOX IMVI melanoma = test system: LOX IMVI melanoma
M14 melanoma = test system: M14 melanoma
MALME-3M melanoma = test system: MALME-3M melanoma
MCF7 breast = test system: MCF7 breast
MDA-MB-231 breast = test system: MDA-MB-231 breast
MDA-MB-435 = test system: MDA-MB-435
MOLT-4 leukemia = test system: MOLT-4 leukemia
NCI-H226 lung = test system: NCI-H226 lung
NCI-H23 lung = test system: NCI-H23 lung
NCI-H460 lung = test system: NCI-H460 lung
NCI-H522 lung = test system: NCI-H522 lung
NCI/ADR-RES ovarian = test system: NCI/ADR-RES ovarian
OVCAR-3 ovarian = test system: OVCAR-3 ovarian
OVCAR-4 ovarian = test system: OVCAR-4 ovarian
OVCAR-5 ovarian = test system: OVCAR-5 ovarian
OVCAR-8 ovarian = test system: OVCAR-8 ovarian
PC-3 prostate = test system: PC-3 prostate
RPMI-8226 leukemia = test system: RPMI-8226 leukemia
RXF 393 renal = test system: RXF 393 renal
SF-268 CNS = test system: SF-268 CNS
SF-295 CNS = test system: SF-295 CNS
SF-539 CNS = test system: SF-539 CNS
SK-MEL-2 melanoma = test system: SK-MEL-2 melanoma
SK-MEL-28 melanoma = test system: SK-MEL-28 melanoma
SK-MEL-5 melanoma = test system: SK-MEL-5 melanoma
SK-OV-3 ovarian = test system: SK-OV-3 ovarian
SN12C renal = test system: SN12C renal
SNB-19 CNS = test system: SNB-19 CNS
SNB-75 CNS = test system: SNB-75 CNS
SR leukemia = test system: SR leukemia
SW-620 colon = test system: SW-620 colon
T-47D breast = test system: T-47D breast
TK-10 renal = test system: TK-10 renal
U251 CNS = test system: U251 CNS
UACC-257 melanoma = test system: UACC-257 melanoma
UACC-62 melanoma = test system: UACC-62 melanoma
UO-31 renal = test system: UO-31 renal

For `Cc1nc2sccn2c1/C=C1/C(=O)Nc2ccccc21`, the GI50 (786-0 renal) was 15.1 µM, the TGI (786-0 renal) was > 100 µM and the GI50 (A498 renal) was 1.68 µM. For the same compound, the TGI (A498 renal) was 9.72 µM, the GI50 (A549 NSCLC) was 7.65 µM and the TGI (A549 NSCLC) was > 100 µM. For the same compound, the GI50 (ACHN renal) was 8.29 µM, the TGI (ACHN renal) was > 100 µM and the GI50 (BT-549 breast) was 17.2 µM. The TGI (BT-549 breast) was > 100 µM, the GI50 (CAKI-1 renal) was 2.98 µM and the TGI (CAKI-1 renal) was > 100 µM. The GI50 (CCRF-CEM leukemia) was 5.01 µM, the TGI (CCRF-CEM leukemia) was > 100 µM and the GI50 (COLO 205 colon) was 3.11 µM. The TGI (COLO 205 colon) was > 45.9 µM, the GI50 (DU-145 prostate) was 24.4 µM and the TGI (DU-145 prostate) was > 100 µM. For the same compound, the GI50 (EKVX NSCLC) was 27.6 µM, the TGI (EKVX NSCLC) was > 100 µM and the GI50 (HCC-2998 colon) was 1.13 µM. For the same compound, the TGI (HCC-2998 colon) was 27.2 µM, the GI50 (HCT-116 colon) was 3.4 µM and the TGI (HCT-116 colon) was 20.2 µM. The GI50 (HCT-15 colon) was 2.46 µM, the TGI (HCT-15 colon) was > 100 µM and the GI50 (HL-60(TB) leukemia) was 2.1 µM. The TGI (HL-60(TB) leukemia) was 7.25 µM, the GI50 (HOP-62 NSCLC) was 5.13 µM and the TGI (HOP-62 NSCLC) was > 100 µM. For the same compound, the GI50 (HOP-92 NSCLC) was 17.9 µM, the TGI (HOP-92 NSCLC) was > 100 µM and the GI50 (HS 578T breast) was 19.4 µM. For the same compound, the TGI (HS 578T breast) was > 78.1 µM, the GI50 (HT29 colon) was 2.81 µM and the TGI (HT29 colon) was > 100 µM. The GI50 (IGROV1 ovarian) was 2.27 µM, the TGI (IGROV1 ovarian) was > 25.2 µM and the GI50 (K-562 leukemia) was > 100 µM. For the same compound, the TGI (K-562 leukemia) was > 100 µM, the GI50 (KM12 colon) was 0.349 µM and the TGI (KM12 colon) was > 100 µM. The GI50 (LOX IMVI melanoma) was 8.42 µM, the TGI (LOX IMVI melanoma) was > 100 µM and the GI50 (M14 melanoma) was 3.71 µM. The TGI (M14 melanoma) was > 100 µM, the GI50 (MALME-3M melanoma) was 5.37 µM and the TGI (MALME-3M melanoma) was > 100 µM. The GI50 (MCF7 breast) was 1.02 µM, the TGI (MCF7 breast) was > 100 µM and the GI50 (MDA-MB-231 breast) was 4.53 µM. For the same compound, the TGI (MDA-MB-231 breast) was > 82.5 µM, the GI50 (MDA-MB-435) was 0.582 µM and the TGI (MDA-MB-435) was 11 µM. For the same compound, the GI50 (MOLT-4 leukemia) was 4.83 µM, the TGI (MOLT-4 leukemia) was > 31.6 µM and the GI50 (NCI-H226 lung) was 23.9 µM. For the same compound, the TGI (NCI-H226 lung) was > 100 µM, the GI50 (NCI-H23 lung) was > 30.3 µM and the TGI (NCI-H23 lung) was > 100 µM. The GI50 (NCI-H460 lung) was 5.05 µM, the TGI (NCI-H460 lung) was > 100 µM and the GI50 (NCI-H522 lung) was 1.85 µM. The TGI (NCI-H522 lung) was 22 µM, the GI50 (NCI/ADR-RES ovarian) was 3.51 µM and the TGI (NCI/ADR-RES ovarian) was > 51 µM. The GI50 (OVCAR-3 ovarian) was 2.36 µM, the TGI (OVCAR-3 ovarian) was > 22.8 µM and the GI50 (OVCAR-4 ovarian) was > 29.6 µM. For the same compound, the TGI (OVCAR-4 ovarian) was > 100 µM, the GI50 (OVCAR-5 ovarian) was 38.3 µM and the TGI (OVCAR-5 ovarian) was > 100 µM. For the same compound, the GI50 (OVCAR-8 ovarian) was 12.7 µM, the TGI (OVCAR-8 ovarian) was > 66.9 µM and the GI50 (PC-3 prostate) was 12.3 µM. The TGI (PC-3 prostate) was > 100 µM, the GI50 (RPMI-8226 leukemia) was 7.16 µM and the TGI (RPMI-8226 leukemia) was > 100 µM. The GI50 (RXF 393 renal) was 19.7 µM, the TGI (RXF 393 renal) was > 80.9 µM and the GI50 (SF-268 CNS) was 52 µM. The TGI (SF-268 CNS) was > 100 µM, the GI50 (SF-295 CNS) was 3.01 µM and the TGI (SF-295 CNS) was > 26.5 µM. It also gave a GI50 (SF-539 CNS) of 3.14 µM, a TGI (SF-539 CNS) of 17.8 µM and a GI50 (SK-MEL-2 melanoma) of 5.73 µM. For the same compound, the TGI (SK-MEL-2 melanoma) was > 100 µM, the GI50 (SK-MEL-28 melanoma) was > 28.5 µM and the TGI (SK-MEL-28 melanoma) was > 100 µM. The GI50 (SK-MEL-5 melanoma) was 3.37 µM, the TGI (SK-MEL-5 melanoma) was > 62.9 µM and the GI50 (SK-OV-3 ovarian) was 24 µM. For the same compound, the TGI (SK-OV-3 ovarian) was > 93.3 µM, the GI50 (SN12C renal) was 5.69 µM and the TGI (SN12C renal) was > 100 µM. For the same compound, the GI50 (SNB-19 CNS) was > 44 µM, the TGI (SNB-19 CNS) was > 100 µM and the GI50 (SNB-75 CNS) was 17.7 µM. For the same compound, the TGI (SNB-75 CNS) was > 74.2 µM, the GI50 (SR leukemia) was 1.26 µM and the TGI (SR leukemia) was 5.44 µM. For the same compound, the GI50 (SW-620 colon) was 3.06 µM, the TGI (SW-620 colon) was > 100 µM and the GI50 (T-47D breast) was 0.499 µM. The TGI (T-47D breast) was > 100 µM, the GI50 (TK-10 renal) was 6.55 µM and the TGI (TK-10 renal) was > 78.1 µM. For the same compound, the GI50 (U251 CNS) was 4.96 µM, the TGI (U251 CNS) was > 74.3 µM and the GI50 (UACC-257 melanoma) was > 100 µM. The TGI (UACC-257 melanoma) was > 100 µM, the GI50 (UACC-62 melanoma) was 2.52 µM and the TGI (UACC-62 melanoma) was 21.2 µM. For the same compound, the GI50 (UO-31 renal) was 18.7 µM and the TGI (UO-31 renal) was > 100 µM.
